Assay results: PubChem BioAssay (NCI)
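Cultured in 96-well plates, cells were exposed to test compound for 48 hours across five concentrations. The concentration for 50% growth inhibition is given as GI50. The concentration for full growth arrest is given as TGI.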

Tests used:
Experiment in all cases: inhibition of tumour cell growth, NCI panel, 48 h
HOP-62 NSCLC = tested on: HOP-62 NSCLC
LOX IMVI melanoma = tested on: LOX IMVI melanoma
IGROV1 ovarian = tested on: IGROV1 ovarian
MOLT-4 leukemia = tested on: MOLT-4 leukemia
A549 NSCLC = tested on: A549 NSCLC
HL-60(TB) leukemia = tested on: HL-60(TB) leukemia
SNB-75 CNS = tested on: SNB-75 CNS
SF-539 CNS = tested on: SF-539 CNS
HOP-92 NSCLC = tested on: HOP-92 NSCLC
HCC-2998 colon = tested on: HCC-2998 colon
RPMI-8226 leukemia = tested on: RPMI-8226 leukemia
M14 melanoma = tested on: M14 melanoma
NCI-H226 lung = tested on: NCI-H226 lung
NCI-H522 lung = tested on: NCI-H522 lung
SF-295 CNS = tested on: SF-295 CNS
OVCAR-3 ovarian = tested on: OVCAR-3 ovarian
RXF 393 renal = tested on: RXF 393 renal
PC-3 prostate = tested on: PC-3 prostate
OVCAR-8 ovarian = tested on: OVCAR-8 ovarian
EKVX NSCLC = tested on: EKVX NSCLC
MALME-3M melanoma = tested on: MALME-3M melanoma
U251 CNS = tested on: U251 CNS
SF-268 CNS = tested on: SF-268 CNS
786-0 renal = tested on: 786-0 renal
MDA-MB-435 = tested on: MDA-MB-435
DU-145 prostate = tested on: DU-145 prostate
SK-OV-3 ovarian = tested on: SK-OV-3 ovarian
NCI-H23 lung = tested on: NCI-H23 lung
HCT-15 colon = tested on: HCT-15 colon
BT-549 breast = tested on: BT-549 breast
UACC-62 melanoma = tested on: UACC-62 melanoma
NCI-H460 lung = tested on: NCI-H460 lung
UACC-257 melanoma = tested on: UACC-257 melanoma
MCF7 breast = tested on: MCF7 breast
SW-620 colon = tested on: SW-620 colon
SK-MEL-5 melanoma = tested on: SK-MEL-5 melanoma
TK-10 renal = tested on: TK-10 renal
KM12 colon = tested on: KM12 colon
T-47D breast = tested on: T-47D breast
MDA-MB-468 breast = tested on: MDA-MB-468 breast
SK-MEL-2 melanoma = tested on: SK-MEL-2 melanoma
CAKI-1 renal = tested on: CAKI-1 renal
SR leukemia = tested on: SR leukemia
OVCAR-4 ovarian = tested on: OVCAR-4 ovarian
ACHN renal = tested on: ACHN renal
HCT-116 colon = tested on: HCT-116 colon
OVCAR-5 ovarian = tested on: OVCAR-5 ovarian
MDA-MB-231 breast = tested on: MDA-MB-231 breast
HS 578T breast = tested on: HS 578T breast
CCRF-CEM leukemia = tested on: CCRF-CEM leukemia
UO-31 renal = tested on: UO-31 renal
HT29 colon = tested on: HT29 colon
K-562 leukemia = tested on: K-562 leukemia
COLO 205 colon = tested on: COLO 205 colon
A498 renal = tested on: A498 renal
SK-MEL-28 melanoma = tested on: SK-MEL-28 melanoma
SNB-19 CNS = tested on: SNB-19 CNS
SN12C renal = tested on: SN12C renal

CN(C)c1ccnc(NCCCSC(c2ccccc2)(c2ccccc2)c2ccccc2)c1
GI50 (HOP-62 NSCLC): 14.5 µM
TGI (HOP-62 NSCLC): 29.2 µM
GI50 (LOX IMVI melanoma): 2.96 µM
TGI (LOX IMVI melanoma): 10.6 µM
GI50 (IGROV1 ovarian): 11.4 µM
TGI (IGROV1 ovarian): 27.9 µM
GI50 (MOLT-4 leukemia): 3.62 µM
TGI (MOLT-4 leukemia): 15 µM
GI50 (A549 NSCLC): 7.35 µM
TGI (A549 NSCLC): 21.6 µM
GI50 (HL-60(TB) leukemia): 3.06 µM
TGI (HL-60(TB) leukemia): 10.5 µM
GI50 (SNB-75 CNS): 11.9 µM
TGI (SNB-75 CNS): 24.3 µM
GI50 (SF-539 CNS): 6.82 µM
TGI (SF-539 CNS): 21.9 µM
GI50 (HOP-92 NSCLC): 3.3 µM
TGI (HOP-92 NSCLC): 15.8 µM
GI50 (HCC-2998 colon): 2.55 µM
TGI (HCC-2998 colon): 7.13 µM
GI50 (RPMI-8226 leukemia): 3.43 µM
TGI (RPMI-8226 leukemia): 12.3 µM
GI50 (M14 melanoma): 3.81 µM
TGI (M14 melanoma): 13.3 µM
GI50 (NCI-H226 lung): 10.9 µM
TGI (NCI-H226 lung): 28.1 µM
GI50 (NCI-H522 lung): 12 µM
TGI (NCI-H522 lung): 26.6 µM
GI50 (SF-295 CNS): 11.4 µM
TGI (SF-295 CNS): 26.2 µM
GI50 (OVCAR-3 ovarian): 7.26 µM
TGI (OVCAR-3 ovarian): 20.2 µM
GI50 (RXF 393 renal): 2.58 µM
TGI (RXF 393 renal): 9.7 µM
GI50 (PC-3 prostate): 4.41 µM
TGI (PC-3 prostate): 16.3 µM
GI50 (OVCAR-8 ovarian): 10.3 µM
TGI (OVCAR-8 ovarian): 28 µM
GI50 (EKVX NSCLC): 14.2 µM
TGI (EKVX NSCLC): 29.6 µM
GI50 (MALME-3M melanoma): 1.55 µM
TGI (MALME-3M melanoma): 3.19 µM
GI50 (U251 CNS): 7.78 µM
TGI (U251 CNS): 21.7 µM
GI50 (SF-268 CNS): 14.5 µM
TGI (SF-268 CNS): 30.5 µM
GI50 (786-0 renal): 9.86 µM
TGI (786-0 renal): 25.8 µM
GI50 (MDA-MB-435): 8.6 µM
TGI (MDA-MB-435): 20.9 µM
GI50 (DU-145 prostate): 11 µM
TGI (DU-145 prostate): 23 µM
GI50 (SK-OV-3 ovarian): 13.5 µM
TGI (SK-OV-3 ovarian): 26.8 µM
GI50 (NCI-H23 lung): 12.9 µM
TGI (NCI-H23 lung): 26.3 µM
GI50 (HCT-15 colon): 5.19 µM
TGI (HCT-15 colon): 19.6 µM
GI50 (BT-549 breast): 11.5 µM
TGI (BT-549 breast): 25 µM
GI50 (UACC-62 melanoma): 7.5 µM
TGI (UACC-62 melanoma): 21.6 µM
GI50 (NCI-H460 lung): 4.85 µM
TGI (NCI-H460 lung): 17.1 µM
GI50 (UACC-257 melanoma): 3.07 µM
TGI (UACC-257 melanoma): 11.6 µM
GI50 (MCF7 breast): 3.96 µM
TGI (MCF7 breast): 16.6 µM
GI50 (SW-620 colon): 4.42 µM
TGI (SW-620 colon): 16.1 µM
GI50 (SK-MEL-5 melanoma): 3.93 µM
TGI (SK-MEL-5 melanoma): 14.2 µM
GI50 (TK-10 renal): 12.4 µM
TGI (TK-10 renal): 25.4 µM
GI50 (KM12 colon): 5.57 µM
TGI (KM12 colon): 17.8 µM
GI50 (T-47D breast): 11.4 µM
TGI (T-47D breast): 29 µM
GI50 (MDA-MB-468 breast): 2.01 µM
TGI (MDA-MB-468 breast): 5.63 µM
GI50 (SK-MEL-2 melanoma): 16.6 µM
TGI (SK-MEL-2 melanoma): 30.7 µM
GI50 (CAKI-1 renal): 7.48 µM
TGI (CAKI-1 renal): 21 µM
GI50 (SR leukemia): 2.76 µM
TGI (SR leukemia): 7.84 µM
GI50 (OVCAR-4 ovarian): 11.8 µM
TGI (OVCAR-4 ovarian): 29.8 µM
GI50 (ACHN renal): 8.67 µM
TGI (ACHN renal): 24.8 µM
GI50 (HCT-116 colon): 3.97 µM
TGI (HCT-116 colon): 17 µM
GI50 (OVCAR-5 ovarian): 11.9 µM
TGI (OVCAR-5 ovarian): 26 µM
GI50 (MDA-MB-231 breast): 5.71 µM
TGI (MDA-MB-231 breast): 20.2 µM
GI50 (HS 578T breast): 11.3 µM
TGI (HS 578T breast): 35.3 µM
GI50 (CCRF-CEM leukemia): 3.94 µM
TGI (CCRF-CEM leukemia): 17 µM
GI50 (UO-31 renal): 5.4 µM
TGI (UO-31 renal): 21.1 µM
GI50 (HT29 colon): 3 µM
TGI (HT29 colon): 10.7 µM
GI50 (K-562 leukemia): 2.88 µM
TGI (K-562 leukemia): 10.4 µM
GI50 (COLO 205 colon): 1.87 µM
TGI (COLO 205 colon): 3.44 µM
GI50 (A498 renal): 14.9 µM
TGI (A498 renal): 29 µM
GI50 (SK-MEL-28 melanoma): 1.75 µM
TGI (SK-MEL-28 melanoma): 3.74 µM
GI50 (SNB-19 CNS): 15.9 µM
TGI (SNB-19 CNS): 31.5 µM
GI50 (SN12C renal): 11.1 µM
TGI (SN12C renal): 25.8 µM
